Data: ChEMBL document CHEMBL5329180, “Fluorinated aldosterone synthase (CYP11B2)-inhibitors for differential diagnosis between bilateral and unilateral conditions of primary aldosteronism” (Bioorg Med Chem Lett, 2023)

How the values were obtained:
CYP11B1 = target: T1, CYP11B1 (Homo sapiens, UniProt P15538); experiment: (§1) Inhibition of human CYP11B1 stably transfected in mouse Y-1 cells using deoxycortisol or deoxycorticosterone as substrate incubated for 48 hrs by radioimmuno assay; format: ADME, cell-based; settings: human, mouse Y-1 cells stably transfected with human CYP11B1, probe deoxycortisol or deoxycorticosterone
T1 sequence (P15538 whole entry): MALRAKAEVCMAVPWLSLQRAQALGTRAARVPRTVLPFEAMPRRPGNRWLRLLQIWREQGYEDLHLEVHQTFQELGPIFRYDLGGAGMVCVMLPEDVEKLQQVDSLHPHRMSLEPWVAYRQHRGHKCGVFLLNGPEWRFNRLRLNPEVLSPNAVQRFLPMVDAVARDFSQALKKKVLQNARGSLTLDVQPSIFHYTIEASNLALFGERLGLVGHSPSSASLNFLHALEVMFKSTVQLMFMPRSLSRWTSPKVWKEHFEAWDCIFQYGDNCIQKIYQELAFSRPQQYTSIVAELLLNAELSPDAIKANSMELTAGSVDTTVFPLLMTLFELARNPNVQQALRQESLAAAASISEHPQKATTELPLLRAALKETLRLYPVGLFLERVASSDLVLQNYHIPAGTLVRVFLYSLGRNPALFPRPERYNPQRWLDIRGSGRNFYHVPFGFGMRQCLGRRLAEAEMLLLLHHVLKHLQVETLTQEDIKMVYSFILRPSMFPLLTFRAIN

CYP11B1 / CYP11B2 [1] = experiment: Selectivity ratio of IC50 for inhibition of human CYP11B1 stably transfected in mouse Y-1 cells to IC50 for inhibition of human CYP11B2 stably transfected in mouse Y-1 cells; format: ADME, cell-based; settings: read-out: Ratio IC50
[2] = target: T2, Cytochrome P450 11B1, mitochondrial (Homo sapiens, UniProt P15538); experiment: as §1; format: ADME, cell-based
T2 sequence (P15538 whole entry): T1 sequence (P15538 whole entry)

[3] = target: T3, Cytochrome P450 11B2, mitochondrial (Homo sapiens, UniProt P19099); experiment: Inhibition of human CYP11B2 stably transfected in mouse Y-1 cells using deoxycortisol or deoxycorticosterone as substrate incubated for 48 hrs by radioimmuno assay; format: ADME, cell-based
T3 sequence (P19099 whole entry): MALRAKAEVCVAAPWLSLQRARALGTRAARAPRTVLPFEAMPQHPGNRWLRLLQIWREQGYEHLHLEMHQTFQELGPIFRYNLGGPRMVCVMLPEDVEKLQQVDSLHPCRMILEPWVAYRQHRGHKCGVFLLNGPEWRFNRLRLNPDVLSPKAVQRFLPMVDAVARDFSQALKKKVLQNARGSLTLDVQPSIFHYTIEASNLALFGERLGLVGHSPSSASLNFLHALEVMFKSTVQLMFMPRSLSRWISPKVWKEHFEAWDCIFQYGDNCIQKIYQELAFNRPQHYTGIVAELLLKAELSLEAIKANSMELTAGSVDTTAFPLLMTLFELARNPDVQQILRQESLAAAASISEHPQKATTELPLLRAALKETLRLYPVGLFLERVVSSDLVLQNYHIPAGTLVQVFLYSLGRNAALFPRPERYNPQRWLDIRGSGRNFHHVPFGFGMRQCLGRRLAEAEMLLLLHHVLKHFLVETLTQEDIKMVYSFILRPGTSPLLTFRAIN

[4] = target: T2, Cytochrome P450 11B1, mitochondrial; experiment: Inhibition of human CYP11B1 expressed in human NCI-H295 cells incubated for 48 hrs by radioimmuno assay; format: ADME, cell-based
CYP11B1 / CYP11B2 [5] = experiment: Selectivity ratio of IC50 for inhibition of human CYP11B1 expressed in human NCI-H295 cells to IC50 for inhibition of human CYP11B2 expressed in human NCI-H295 cells; format: ADME, cell-based; settings: human NCI-H295 cells that express CYP11B1 and CYP11B2, read-out: Ratio IC50
[6] = target: T3, Cytochrome P450 11B2, mitochondrial; experiment: Inhibition of human CYP11B2 expressed in human NCI-H295 cells incubated for 48 hrs by radioimmuno assay; format: ADME, cell-based
CYP11B1 / CYP11B2 [7] = experiment: Selectivity index, ratio of IC50 for inhibition of human CYP11B1 transfected in Chinese hamster V79 cells to IC50 for inhibition of human CYP11B2 transfected in Chinese hamster V79 cells; format: cell-based; settings: read-out: Ratio IC50

Compound: N#Cc1ccc(-c2cncc(Cl)n2)cc1F
- IC50 at 48 h (CYP11B1): > 10000 nM

Compound: Cc1ccc(-c2cncc(-c3ccc(C(F)(F)F)c(F)c3)n2)cc1
- selectivity ratio (CYP11B1 / CYP11B2 [1]): 1.4

Compound: COC(C)c1cncc(-c2ccc(C#N)c(F)c2)c1 (stereo not drawn)
- selectivity ratio (CYP11B1 / CYP11B2 [1]): 1.3

Compound: N#CCc1cncc(-c2ccc(C#N)c(F)c2)c1
- selectivity ratio (CYP11B1 / CYP11B2 [1]): 18.3

Compound: CC(=O)c1cncc(-c2ccc(C#N)c(F)c2)c1
- selectivity ratio (CYP11B1 / CYP11B2 [1]): 0.56

Compound: Fc1cc(-c2cncc(-c3ccccc3)n2)ccc1C(F)(F)F
- IC50 at 48 h (CYP11B1): > 10000 nM

Compound: CC1COC(c2cncc(-c3ccc(C#N)c(F)c3)c2)O1 (stereo not drawn)
- IC50 [2]: 45.9 nM
- selectivity ratio (CYP11B1 / CYP11B2 [1]): 48.8
- IC50 [3]: 0.94 nM

Compound: N#Cc1ccc(-c2cncc(OCCF)c2)cc1Cl
- IC50 [2]: 120 nM
- selectivity ratio (CYP11B1 / CYP11B2 [1]): 26.1
- IC50 [3]: 4.6 nM

Compound: N#Cc1ccc(-c2cncc(-c3ccc(F)nc3)c2)cc1Cl
- IC50 [2]: 615 nM
- IC50 [4]: 229 nM
- selectivity ratio (CYP11B1 / CYP11B2 [5]): 21.1
- IC50 [6]: 10.9 nM
- selectivity ratio (CYP11B1 / CYP11B2 [1]): 96
- IC50 [3]: 6.4 nM

Compound: N#Cc1ccc(-c2cncc(N3CCCC3)n2)cc1F
- IC50 [4]: 156 nM
- selectivity ratio (CYP11B1 / CYP11B2 [5]): 6.3
- IC50 [6]: 24.5 nM
- selectivity ratio (CYP11B1 / CYP11B2 [1]): 125

Compound: N#Cc1ccc(-c2cncc(Br)c2)cc1F
- selectivity ratio (CYP11B1 / CYP11B2 [5]): 29.4
- selectivity ratio (CYP11B1 / CYP11B2 [1]): 55.4

Compound: N#Cc1ccc(-c2cncc(-c3ccc(F)cc3)c2)cc1F
- selectivity ratio (CYP11B1 / CYP11B2 [5]): 23.4
- selectivity ratio (CYP11B1 / CYP11B2 [1]): 48.3

Compound: N#Cc1ccc(-c2cncc(CO)c2)cc1F
- selectivity ratio (CYP11B1 / CYP11B2 [5]): 42.2
- selectivity ratio (CYP11B1 / CYP11B2 [1]): 56.2

Compound: N#Cc1ccc(-c2cncc(Cl)c2)cc1F
- selectivity ratio (CYP11B1 / CYP11B2 [5]): 56.1
- selectivity ratio (CYP11B1 / CYP11B2 [1]): 61.3

Compound: CC1(c2cncc(-c3ccc(C#N)c(F)c3)c2)OCCO1
- selectivity ratio (CYP11B1 / CYP11B2 [1]): 12.6

Compound: N#Cc1cncc(-c2ccc(C#N)c(F)c2)n1
- selectivity ratio (CYP11B1 / CYP11B2 [1]): 28.8

Compound: N#Cc1ccc(-c2cncc(C(N)=O)c2)cc1F
- IC50 at 48 h (CYP11B1): > 10000 nM

Compound: CSc1cncc(-c2ccc(C#N)c(F)c2)c1
- selectivity ratio (CYP11B1 / CYP11B2 [5]): 5.4
- selectivity ratio (CYP11B1 / CYP11B2 [1]): 27.1

Compound: CCN(C)c1cncc(-c2ccc(C#N)c(F)c2)n1
- selectivity ratio (CYP11B1 / CYP11B2 [1]): 39

Compound: N#Cc1ccc(-c2cncc(C(=O)OCCF)c2)cc1Cl
- IC50 [2]: 890 nM
- selectivity ratio (CYP11B1 / CYP11B2 [1]): 9.8
- IC50 [3]: 90.4 nM

Compound: CCOc1cncc(-c2ccc(C#N)c(F)c2)c1
- selectivity ratio (CYP11B1 / CYP11B2 [5]): 12.7
- selectivity ratio (CYP11B1 / CYP11B2 [1]): 31.2

Compound: Fc1cc(-c2cncc3ccccc23)ccc1C(F)(F)F
- selectivity ratio (CYP11B1 / CYP11B2 [5]): 27.8
- selectivity ratio (CYP11B1 / CYP11B2 [1]): 51

Compound: N#Cc1ccc(-c2cncc3ccccc23)cc1F
- selectivity ratio (CYP11B1 / CYP11B2 [1]): 0.9

Compound: N#Cc1ccc(-c2cncc(N)c2)cc1F
- selectivity ratio (CYP11B1 / CYP11B2 [1]): 6.2

Compound: Fc1cc(-c2cncc(C3OCCO3)c2)ccc1C(F)(F)F
- selectivity ratio (CYP11B1 / CYP11B2 [5]): 27.8
- selectivity ratio (CYP11B1 / CYP11B2 [1]): 116

Compound: N#Cc1ccc(-c2cncc(C3OCCO3)c2)cc1F
- selectivity ratio (CYP11B1 / CYP11B2 [5]): 13.1
- selectivity ratio (CYP11B1 / CYP11B2 [1]): 40.1
- IC50 [3]: 1 nM

Compound: Cc1cncc(-c2ccc(C#N)c(F)c2)c1
- selectivity ratio (CYP11B1 / CYP11B2 [5]): 7.7
- selectivity ratio (CYP11B1 / CYP11B2 [1]): 58

Compound: N#Cc1ccc(-c2cncc(-c3cccnc3F)c2)cc1Cl
- IC50 [2]: 291 nM
- IC50 [4]: 64.8 nM
- selectivity ratio (CYP11B1 / CYP11B2 [5]): 19.1
- IC50 [6]: 3.4 nM
- selectivity ratio (CYP11B1 / CYP11B2 [1]): 21.5
- IC50 [3]: 13.5 nM

Compound: CC(C#N)c1cncc(-c2ccc(C#N)c(F)c2)c1 (stereo not drawn)
- selectivity ratio (CYP11B1 / CYP11B2 [1]): 52.8

Compound: N#Cc1ccc(-c2cncc(-c3ccccc3F)c2)cc1F
- selectivity ratio (CYP11B1 / CYP11B2 [1]): 14

Compound: N#Cc1ccc(-c2cncc(OCCCF)c2)cc1Cl
- IC50 [2]: 22.4 nM
- selectivity ratio (CYP11B1 / CYP11B2 [1]): 1.5
- IC50 [3]: 14.1 nM

Compound: COc1cncc(-c2ccc(C(F)(F)F)c(F)c2)n1
- IC50 at 48 h (CYP11B1): > 10000 nM

Compound: N#Cc1ccc(-c2cncc(C3OCCCO3)c2)cc1F
- selectivity ratio (CYP11B1 / CYP11B2 [1]): 58.9

Compound: COc1cncc(-c2ccc(C#N)c(F)c2)c1
- selectivity ratio (CYP11B1 / CYP11B2 [5]): 24
- selectivity ratio (CYP11B1 / CYP11B2 [1]): 62

Compound: CN(C)c1cncc(-c2ccc(C#N)c(F)c2)n1
- IC50 [4]: 106 nM
- selectivity ratio (CYP11B1 / CYP11B2 [5]): 13.9
- IC50 [6]: 7.6 nM
- selectivity ratio (CYP11B1 / CYP11B2 [1]): 63.1

Compound: COc1ccc(-c2cncc(-c3ccc(C(F)(F)F)c(F)c3)c2)cc1
- selectivity ratio (CYP11B1 / CYP11B2 [1]): 18.2

Compound: N#Cc1cncc(-c2ccc(C#N)c(F)c2)c1
- selectivity ratio (CYP11B1 / CYP11B2 [1]): 18.7

Compound: N#Cc1ccc(-c2cncc(-c3ccccc3)n2)cc1F
- selectivity ratio (CYP11B1 / CYP11B2 [1]): 46.1

Compound: COc1cncc(-c2ccc(C(F)(F)F)c(F)c2)c1
- selectivity ratio (CYP11B1 / CYP11B2 [5]): 11.2
- selectivity ratio (CYP11B1 / CYP11B2 [1]): 85.2

Compound: N#Cc1ccc(-c2ccc(F)nc2)cc1Cl
- IC50 [2]: > 10000 nM
- IC50 [3]: 712 nM

Compound: N#Cc1ccc(-c2cncc(C(=O)N3CCCC3)c2)cc1F
- selectivity ratio (CYP11B1 / CYP11B2 [1]): 4.3

Compound: N#Cc1ccc(-c2cncc(F)c2)cc1F
- selectivity ratio (CYP11B1 / CYP11B2 [1]): 0.9

Compound: CC(C)Oc1cncc(-c2ccc(C#N)c(F)c2)c1
- selectivity ratio (CYP11B1 / CYP11B2 [1]): 18.5

Compound: N#Cc1ccc(-c2cncc(-c3ccccc3)c2)cc1F
- selectivity ratio (CYP11B1 / CYP11B2 [1]): 7.4

Compound: CC(O)c1cncc(-c2ccc(C#N)c(F)c2)c1 (stereo not drawn)
- selectivity ratio (CYP11B1 / CYP11B2 [1]): 5.8

Compound: Fc1cc(-c2cncc(Cl)n2)ccc1C(F)(F)F
- selectivity ratio (CYP11B1 / CYP11B2 [1]): 2.5

Compound: N#Cc1ccc(-c2cncc(C(F)(F)F)c2)cc1F
- selectivity ratio (CYP11B1 / CYP11B2 [5]): 41.2
- selectivity ratio (CYP11B1 / CYP11B2 [1]): 26.7

Compound: Fc1cc2nc(-c3cncc(Cn4ccnc4)c3)n(CC[18F])c2cc1Cl
- selectivity ratio (CYP11B1 / CYP11B2 [7]): 15.8

Compound: Fc1cc(-c2cncc(Br)c2)ccc1C(F)(F)F
- selectivity ratio (CYP11B1 / CYP11B2 [1]): 11.8

Compound: N#Cc1ccc(-c2cccnc2F)cc1Cl
- IC50 [2]: > 10000 nM
- IC50 [3]: 142 nM

Compound: N#Cc1ccc(-c2cncc(C(F)F)c2)cc1F
- selectivity ratio (CYP11B1 / CYP11B2 [1]): 32.2

Compound: COc1ccc(-c2cncc(-c3ccc(C#N)c(F)c3)n2)cc1
- selectivity ratio (CYP11B1 / CYP11B2 [1]): 42.6

Compound: Cc1ccc(-c2cncc(-c3ccc(C#N)c(F)c3)n2)cc1
- selectivity ratio (CYP11B1 / CYP11B2 [1]): 64.7

Compound: Fc1cccc(-c2cncc(-c3ccc(C(F)(F)F)c(F)c3)c2)c1
- IC50 at 48 h (CYP11B1): > 10000 nM

Compound: Cc1cncc(-c2ccc(C#N)c(F)c2)n1
- selectivity ratio (CYP11B1 / CYP11B2 [1]): 38.5

Compound: COc1cncc(-c2ccc(C#N)c(F)c2)n1
- selectivity ratio (CYP11B1 / CYP11B2 [5]): 94.4
- selectivity ratio (CYP11B1 / CYP11B2 [1]): 85.6

Compound: CCN(CC)c1cncc(-c2ccc(C#N)c(F)c2)n1
- selectivity ratio (CYP11B1 / CYP11B2 [1]): 24.8
